{
  "source": "paper PMC9981206",
  "about": "(Cancer Research Communications, 2022)",
  "key": {"ABC-1 cells": {"test_system": "ABC-1 cells", "test": "MTS colorimetric cell growth assay, ABC-1", "format": "cell-based", "settings": "Homo sapiens, ABC-1, 120 h", "excerpt": "(§1) The cell cultures were kept below 20 passages (∼10 weeks) and routinely monitored (upon thawing and monthly) for Mycoplasma infections with MycoAlert Mycoplasma Detection Kit (Lonza). All cell lines were authenticated by short tandem repeat profiling to confirm their identity (Eurofins). TNKS1/2 and PARP1 biochemical assays ([27, 32]), luciferase-based WNT/β-catenin signaling pathway reporter assay ([22, 27, 32]), anti-proliferative assays, and NCI-60 tumor cell line panel screen ([7]), immunoblot analyses ([7, 32, 39]), RNA isolation, and real-time qRT-PCR ([7, 27, 39, 40]) were performed as previously described.\n(§2) Prostate (Pro) and central nervous system (CNS). […] Mean ± SD values for data from one representative experiment of more than three repeated assays, each with six replicates, are shown. C, Evaluation of WNT/β-catenin signaling. Left, immunoblots of cytoplasmic AXIN1 and nuclear active form of β-catenin [non-phospho (Ser33/37/Thr41)] and total β-catenin. Lamin B1 loading controls are duplicated for OVCAR-4 immunoblots. Right, real-time RT-qPCR analysis of the WNT/β-catenin signaling target gene AXIN2. […] Immunoblots show representative data from two or more independent experiments. Actin (cytoplasm) and lamin B1 (nucleus) were used as loading controls. […]"}, "OVCAR-4 cells": {"test_system": "OVCAR-4 cells", "test": "MTS colorimetric cell growth assay, OVCAR-4", "format": "cell-based, human", "excerpt": "as §1, §2"}, "UO-31 cells": {"test_system": "UO-31 cells", "test": "MTS colorimetric cell growth assay, UO-31", "format": "cell-based, human", "excerpt": "as §1, §2"}, "in vivo": {"test": "in vivo", "format": "in vivo, CB17-SCID mice", "settings": "CB17-SCID, mouse, doses 0.33–10 mg/kg oral twice daily, 4 hours post last dosing, mass spectrometry", "protocol": "(§3) The experiment using COLO 320DM (CCL-220, RRID: CVCL_0219, ATCC) xenografts was carried out as previously described ([40]) at Reaction Biology. […] Next, the mice were sacrificed, approximately 4 hours after first dose of the day. Protein and RNA extracts were prepared from four moderately sized tumors within each treatment group."}, "COLO 320DM xenografts": {"test_system": "COLO 320DM xenografts", "test": "in vivo", "format": "in vivo, CB17-SCID mice", "settings": "for body weight changes: tumor-bearing CB17-SCID mice", "protocol": "as §3"}, "B16-F10 tumors": {"test_system": "B16-F10 tumors", "test": "B16-F10 mouse melanoma model", "protocol": "The experiment using B16-F10 tumors was carried out as previously described ([39]) at Reaction Biology. […] Next, the mice were sacrificed, approximately 8 hours after last dosing. Protein and RNA extracts were prepared from 8 tumors within each treatment group."}, "[1]": {"test": "28-day oral repeated dose toxicity study", "format": "in vivo, mice", "protocol": "Body weight and food consumption were measured thrice weekly. For the experiment using 10 mg/kg oral–twice daily dosing, blood was collected at the end of the experiment and hematologic and clinical biochemistry analyses were performed at IDEXX according to their standard protocols. Duodenum, jejunum, ileum, colon–rectum, lymph nodes, pancreas, heart, kidney, liver, spleen, lung, prostate, and testis were collected, formalin-fixed (10%), paraffin-embedded, stained with hematoxylin and eosin (H&E), and imaged as previously described ([39]). Staining of ileums using immunofluorescence was performed as previously described ([29, 39]). […] DAPI nuclear dye [(340 nm), 1 μg/μL, D9542, Sigma Aldrich] was added to the final washing solution. […] Imaging was performed using confocal microscopy as described previously ([39]). All animal experiments were approved by local animal experiment authorities (ethics committee of the Chinese Association for Laboratory Animal Sciences, German Centre for the Protection of Laboratory Animals, and Norwegian Food Safety Authority), and were carried out in compliance with FELASA guidelines and recommendations."}, "WNT/β-catenin signaling [2]": {"test_system": "WNT/β-catenin signaling", "test": "Immunoblot and real-time qRT-PCR, WNT/β-catenin signaling in cancer cell lines", "format": "cell-based, human", "settings": "10 nmol/L, 24 hours", "excerpt": "as §1\nProstate (Pro) and central nervous system (CNS). […] Mean ± SD values for data from one representative experiment of more than three repeated assays, each with six replicates, are shown. C, Evaluation of WNT/β-catenin signaling. Left, immunoblots of cytoplasmic AXIN1 and nuclear active form of β-catenin [non-phospho (Ser33/37/Thr41)] and total β-catenin. Lamin B1 loading controls are duplicated for OVCAR-4 immunoblots. Right, real-time RT-qPCR analysis of the WNT/β-catenin signaling target gene AXIN2. […] Immunoblots show representative data from two or more independent experiments. Actin (cytoplasm) and lamin B1 (nucleus) were used as loading controls. Boxplots show median, first, and third quartiles and maximum and minimum whiskers for combined data from three independent experiments with three replicates each. Stippled lines (black) depict control mean values = 1. Two-tailed t tests: ***, P < 0.001; **, P < 0.01; and *, P < 0.05. Mann–Whitney rank sum tests: ‡, P < 0.01. ns., not significant. D, Evaluation of YAP signaling. Left, immunoblots of cytoplasmic AMOTL2 (top) and nuclear YAP and TAZ (bottom). Right, real-time RT-qPCR analysis of the YAP signaling target genes AMOTL2, CCN1, and […]. For D and E, lamin B1 loading controls are duplicated for RKO immunoblots (YAP/TAZ and CCND1). E, Evaluation of MYC signaling. Left, immunoblots of nuclear MYC and CCND1. Lamin B1 loading controls are duplicated for ABC-1 immunoblots. […]"}, "YAP signaling": {"test_system": "YAP signaling", "test": "Immunoblot and real-time qRT-PCR, YAP signaling in cancer cell lines", "format": "cell-based, human", "settings": "10 nmol/L, 24 hours", "excerpt": "as §1, §2"}, "MYC signaling": {"test_system": "MYC signaling", "test": "Immunoblot and real-time qRT-PCR, MYC signaling in cancer cell lines", "format": "cell-based, human", "settings": "10 nmol/L, 24 hours, all TNKSi-sensitive cell lines", "excerpt": "as §1, §2"}, "PARP1": {"target": "PARP1 (Homo sapiens, UniProt P09874)", "sequence (P09874 whole entry)": "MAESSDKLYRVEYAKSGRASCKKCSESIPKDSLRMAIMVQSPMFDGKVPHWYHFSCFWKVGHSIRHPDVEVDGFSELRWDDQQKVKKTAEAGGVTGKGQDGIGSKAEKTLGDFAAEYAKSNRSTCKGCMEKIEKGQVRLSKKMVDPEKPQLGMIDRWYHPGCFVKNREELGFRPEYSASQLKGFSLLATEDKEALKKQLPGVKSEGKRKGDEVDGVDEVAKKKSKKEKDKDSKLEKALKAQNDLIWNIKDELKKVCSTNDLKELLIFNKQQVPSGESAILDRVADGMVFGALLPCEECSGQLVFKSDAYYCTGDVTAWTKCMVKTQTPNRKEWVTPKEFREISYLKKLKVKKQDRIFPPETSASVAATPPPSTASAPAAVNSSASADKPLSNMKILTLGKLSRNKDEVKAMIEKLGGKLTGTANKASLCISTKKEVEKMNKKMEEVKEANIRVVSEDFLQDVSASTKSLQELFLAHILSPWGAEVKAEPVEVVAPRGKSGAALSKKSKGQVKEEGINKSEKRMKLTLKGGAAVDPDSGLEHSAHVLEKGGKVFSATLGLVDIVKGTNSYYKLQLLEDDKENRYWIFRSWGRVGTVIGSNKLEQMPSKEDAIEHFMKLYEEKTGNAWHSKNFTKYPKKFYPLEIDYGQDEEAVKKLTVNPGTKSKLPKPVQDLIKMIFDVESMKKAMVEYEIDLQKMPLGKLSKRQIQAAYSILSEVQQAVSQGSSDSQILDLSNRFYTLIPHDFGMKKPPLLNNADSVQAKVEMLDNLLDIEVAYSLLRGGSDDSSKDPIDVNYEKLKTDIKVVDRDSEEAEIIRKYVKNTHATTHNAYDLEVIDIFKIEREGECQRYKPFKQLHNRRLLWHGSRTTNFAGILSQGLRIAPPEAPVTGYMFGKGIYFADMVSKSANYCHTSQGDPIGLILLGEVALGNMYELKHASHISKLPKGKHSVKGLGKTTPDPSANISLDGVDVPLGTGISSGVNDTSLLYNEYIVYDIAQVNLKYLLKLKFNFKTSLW", "settings": "biochemical assay; cited from earlier work"}, "WNT/β-catenin signaling [3]": {"test_system": "WNT/β-catenin signaling", "settings": "HEK293 cells, mean ± SD; read-out: WNT reporter IC50; cited from earlier work"}, "[4]": {"test_system": "COLO 320DM colon carcinoma cells", "settings": "cited from earlier work"}, "[5]": {"test_system": "RKO colon carcinoma cells", "settings": "5 days of cultivation; cited from earlier work"}, "[6]": {"settings": "10 mg/kg oral twice daily, immunoblot"}, "[7]": {"settings": "10 mg/kg oral twice daily, 28 days, CD-1 mice"}, "[8]": {"settings": "10 mg/kg oral twice daily, 28 days, CD-1 mice, clinical biochemistry"}, "[9]": {"settings": "10 mg/kg oral twice daily, 28 days, CD-1 mice, hematology"}},
  "data": [
    {"smiles": "CCOc1ccc(-c2nnc([C@H]3C[C@H](NC(=O)c4cccc5nccnc45)C3)n2-c2ccccc2F)nc1", "note": "[OM-153]", "values": [
      {"measurement": "GI50", "setting": "ABC-1 cells", "value": 2, "unit": "nM"},
      {"measurement": "GI50", "setting": "OVCAR-4 cells; Homo sapiens, OVCAR-4, 120 h", "value": "> 10", "unit": "nM"},
      {"measurement": "GI25", "setting": "OVCAR-4 cells; OVCAR-4, 5 days", "value": 2.5, "unit": "nmol/L"},
      {"measurement": "GI50", "setting": "UO-31 cells; Homo sapiens, UO-31, 120 h", "value": "> 10", "unit": "nM"},
      {"measurement": "GI25", "setting": "UO-31 cells; UO-31, 5 days", "value": 3.5, "unit": "nmol/L"},
      {"measurement": "concentration at 4 h", "setting": "in vivo; plasma", "value": "> 10", "unit": "nM"},
      {"measurement": "concentration at 4 h", "setting": "in vivo; tumor", "value": "> 10", "unit": "nM"},
      {"measurement": "body weight changes", "setting": "COLO 320DM xenografts; 10 mg/kg oral twice daily", "value": "no changes in body weights that would be suggestive for toxicity"},
      {"measurement": "body weight changes", "setting": "COLO 320DM xenografts; 3.3 and 1 mg/kg oral twice daily", "value": "statistically significant body weight reductions"},
      {"measurement": "β-catenin protein and WNT/β-catenin signaling target genes DKK1, APCDD1, NKD1 in tumors", "setting": "COLO 320DM xenografts; immunoblot and real-time qRT-PCR, oral twice daily", "value": "dose-dependently reduced"},
      {"measurement": "AXIN1 and AXIN2 proteins in the tumor specimen", "setting": "COLO 320DM xenografts; immunoblot, oral twice daily", "value": "stabilized"},
      {"measurement": "AXIN1 protein in tumors", "setting": "B16-F10 tumors; [6]", "value": "significant stabilization"},
      {"measurement": "β-catenin in tumors", "setting": "B16-F10 tumors; [6]", "value": "insignificant downregulation"},
      {"measurement": "transcription of the target gene Axin2 in tumors", "setting": "B16-F10 tumors; 10 mg/kg oral twice daily, real-time qRT-PCR", "value": "significantly decreased"},
      {"measurement": "tumor end volume inhibition compared with the vehicle control", "setting": "B16-F10 tumors; 0.1–10 mg/kg OM-153 oral twice daily in combination with anti–PD-1 (10 mg/kg i.p. day 6, 9, 12)", "value": "51%–65%"},
      {"measurement": "body weights", "setting": "B16-F10 tumors; any of the treatment groups, day 6 through 20", "value": "No alterations in body weights"},
      {"measurement": "antitumor effect, monotherapy controls", "setting": "B16-F10 tumors; monotherapy, 10 mg/kg", "value": "did not exert any significant antitumor effects"},
      {"measurement": "clinical signs, body weight, food consumption", "setting": "[1]; [7]", "value": "no clinical signs, body weight loss, or reduced food consumption were observed"},
      {"measurement": "histopathology of other organs", "setting": "[1]; [7]", "value": "No atypical histopathologic changes"},
      {"measurement": "overall intestinal architecture", "setting": "[1]; [7]", "value": "intact"},
      {"measurement": "expression of the ISC marker and WNT/β-catenin signaling target gene Lgr5 in ileum", "setting": "[1]; 10 mg/kg oral twice daily, 28 days, CD-1 mice, RNAscope", "value": "reduced"},
      {"measurement": "AST, ALT and GLDH levels", "setting": "[1]; [8]", "value": "insignificant alteration"},
      {"measurement": "magnesium, potassium, and triglycerides", "setting": "[1]; [8]", "value": "significant decreases"},
      {"measurement": "erythrocytes and hemoglobin", "setting": "[1]; [9]", "value": "moderate but significant reduction"},
      {"measurement": "leukocytes and reticulocytes", "setting": "[1]; [9]", "value": "tendency toward reduced"},
      {"measurement": "histopathology of the other organs", "setting": "[1]; 100 mg/kg oral twice daily, C57BL/6J mice", "value": "No abnormal histopathologic changes"},
      {"measurement": "small intestine histopathology", "setting": "[1]; 100 mg/kg oral twice daily, C57BL/6J mice, 2 out of three mice", "value": "loss of villi height, width, crypt, and as well as surface epithelium, accompanied by inflammation"},
      {"measurement": "clinical observation and body weight", "setting": "[1]; 100 mg/kg oral twice daily, C57BL/6J mice, euthanized on day 7", "value": "reduced activity and body weight loss in 3 of 4 mice"},
      {"measurement": "kidney histopathology", "setting": "[1]; 100 mg/kg oral twice daily, C57BL/6J mice, same mice as intestinal damage", "value": "signs of acute tubular damage in the kidney"},
      {"measurement": "transcription of AXIN2", "setting": "WNT/β-catenin signaling [2]; COLO 320DM, OVCAR-4 and ABC-1 cells", "value": "significantly reduced"},
      {"measurement": "AXIN1 protein", "setting": "WNT/β-catenin signaling [2]; all cell lines (COLO 320DM, UO-31, OVCAR-4, ABC-1, RKO)", "value": "stabilized"},
      {"measurement": "transcriptionally active form of β-catenin in the nuclei", "setting": "WNT/β-catenin signaling [2]; only in COLO 320DM and ABC-1 cells", "value": "reduction"},
      {"measurement": "transcription of YAP signaling target genes AMOTL2, CCN1 and CCN2", "setting": "YAP signaling; all TNKSi-sensitive cell lines", "value": "reduced transcription"},
      {"measurement": "AMOTL2 protein", "setting": "YAP signaling; all cell lines", "value": "cytoplasmic stabilization"},
      {"measurement": "MYC and CCND1 protein and transcription of MYC and CCND1", "setting": "MYC signaling", "value": "decreased"},
      {"measurement": "IC50", "setting": "PARP1", "value": "> 100", "unit": "µM"},
      {"measurement": "IC50", "setting": "WNT/β-catenin signaling [3]", "value": 0.63, "unit": "nM"},
      {"measurement": "COLO320DM GI25", "setting": "[4]; 5 days of cultivation", "value": 2.5, "unit": "nmol/L"},
      {"measurement": "GI50", "setting": "[4]; 5 days of cultivation, read-out: COLO320DM GI50", "value": 10, "unit": "nM"},
      {"measurement": "COLO 320DM in vitro GI50 value", "setting": "[4]; same value as 10 nmol/L", "value": 5.1, "unit": "ng/mL"},
      {"measurement": "GI50", "setting": "[5]", "value": "> 10", "unit": "µM"},
      {"measurement": "RKO GI25", "setting": "[5]", "value": "> 10,000 nmol/L"}
    ]}
  ]
}
